Assay results: patent publication US11352607B2, “Genomic engineering of pluripotent cells” (Fate Therapeutics, Inc., priority 2015, dated 2022)

Legend:
iCasp9-integrated iPSCs = experiment: AP1903-induced cell death of iCasp9-targeted hiPSCs (7AAD staining, flow cytometry); format: cell-based, human; settings: 24 hrs
Method: The sorted GFP (neg), GFP (low) and GFP (hi) populations were expanded, and then were subjected to AP1903 treatment (10 nM or 100 nM), or DMSO as control, for 24 hrs. The treated cells were harvested and stained with 7AAD and analyzed by flow cytometry. The 7AAD negative cells (presumably live cells) percentage were plotted for each treatment.
Expanded puro-resistant iPSCs were then subjected to AP1903 (or DMSO control) treatment for 24 hrs. The treated cells were harvested and stained with 7AAD and analyzed by flow cytometry. The 7AAD negative cells, i.e., live cells, percentage were plotted for each treatment.

293T cells = experiment: AP1903-induced cell death of iCasp9-targeted 293T cells (7AAD); format: cell-based; settings: 10 nM or 120 nM, 24 hrs; 293T cells with CMV-driven iCasp9 at AAVS1
Excerpt: The chemical inducer of dimerization (CID; AP1903) was purchased from Medchemexpress (Monmouth Junction, N.J.). Twenty-four hours after CID exposure, the cells were harvested and stained with 7-amino actinomycin D (7-AAD) according to the manufacturer's instruction (BD Biosciences). The percentage of 7-AAD positive cells were quantified as dead cells by flow cytometry (Guava, EMD Millipore, Billerica, Mass.) and analyzed with flowjo software.
A donor construct encompassing CMV-driven iCasp9 (AAVS1-G1.0) was designed to target the AAVS1 locus (FIG. 1A) and to integrate the Casp9 suicide gene to 293T cells. The donor construct also comprise GFP and puromycin genes, the expression of which are driven by AAVS1 endogenous promoter once the targeted insertion takes place (FIG. 1A). 293T cells were transfected with ZFNs specific to AAVS1 locus and the donor construct AAVS1-G1.0. Three days after transfection, the puromycin selection was started and continued for 12 days. The puro-selected population was analyzed by flow cytometry for GFP expression, and a range of GFP expression levels were observed. It was observed that about 82% of the puro-selected cell population expressed GFP (FIG. 1B). […] The treated cells were then harvested and stained with 7AAD, which selectively stains membrane-compromised dying cells, and analyzed by flow cytometry. […]

[1] = system: CAG-C38 iCasp9 iPSC clone with sr39TK at H11 locus; experiment: Dual suicide gene safe guard system: AP1903 and GCV treatment in vitro; format: cell-based, human; settings: 10 nM AP1903 two days; 25 μg/mL GCV nine days
Excerpt: In addition to CAG-iCasp9 integrated into AAVS1 locus, CAG-sr39TK was integrated into H11 safe harbor in CAG-C38 clonal iPSC using targeted insertion method described herein.

Row | SMILES | cell death mediated by AP1903 (iCasp9-integrated iPSCs; 10 nM or 100 nM, hiPSCs with CMV-driven iCasp9, GFP (neg), GFP (low), GFP (hi) populations) | cell death mediated by AP1903 (iCasp9-integrated iPSCs; hiPSCs with iCasp9 under endogenous AAVS1 promoter) | cell death post AP1903 treatment (293T cells) | inducible killing of CAG-C38 iCasp9 clone with sr39TK at H11 [1]
1 | CC[C@H](C(=O)N1CCCC[C@H]1C(=O)O[C@H](CCc1ccc(OC)c(OC)c1)c1cccc(OCC(=O)NCCNC(=O)COc2cccc([C@@H](CCc3ccc(OC)c(OC)c3)OC(=O)[C@@H]3CCCCN3C(=O)[C@@H](CC)c3cc(OC)c(OC)c(OC)c3)c2)c1)c1cc(OC)c(OC)c(OC)c1 [AP1903] | not detected | not detected | Significant cell death was detected | inducible killing of most cells but rare cells remained
2 | Nc1nc(O)c2ncn(COC(CO)CO)c2n1 [GCV, Ganciclovir] |  |  |  | expanded GCV-refractory cells
